Where “and” joins values, the source holds several entries; their conditions need not be identical. Equal values may be shown once.

Our source for the EC50 values is patent US9000175B2, “Bicyclic GPR119 modulators” (Lupin Limited, priority 2010, dated 2015).

The experiment concerns the target T1, human GPR119 (Homo sapiens, UniProt Q8TDV5).
T1 construct: expressed in transfected cells
T1 sequence (Q8TDV5 1-335): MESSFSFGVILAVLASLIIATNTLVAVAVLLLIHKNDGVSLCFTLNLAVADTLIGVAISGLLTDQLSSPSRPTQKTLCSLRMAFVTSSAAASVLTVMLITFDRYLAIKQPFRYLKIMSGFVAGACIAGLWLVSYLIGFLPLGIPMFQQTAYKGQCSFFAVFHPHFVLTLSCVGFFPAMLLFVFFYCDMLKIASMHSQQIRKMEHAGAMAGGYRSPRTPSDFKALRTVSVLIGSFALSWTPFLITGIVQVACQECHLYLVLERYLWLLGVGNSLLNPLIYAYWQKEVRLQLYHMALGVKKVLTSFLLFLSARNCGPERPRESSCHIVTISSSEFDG
Briefly: Cyclic AMP assay in stable cell line. The format is cell-based. The conditions noted are these: CHO-K1 cells stably transfected with human GPR119; cAMP levels (FRET, cAMP femto kit); 1 h at 37° C; read-out: EC50 Range. The method, then: Cyclic AMP Assay in Stable Cell Line:
Chinese Hamster Ovary (CHO-K1) cells were stably transfected with human GPR119 and were maintained in Ham's F-12 complete medium containing 10% heat inactivated FBS (Sigma, UK). The cells were maintained under a selection pressure with 500 μg/ml G418 (GENETICIN). Stable clones were analyzed for functional cAMP response to OEA (oleoylethanolamide).
To estimate activation of GPR119 and induction of cAMP levels by GPR119 agonists, cells were serum starvation for 18-24 h, trypsinized and seeded in 96 well plates at a, density of 7500 cells/well. The cells were then treated with test compounds diluted in serum free Ham's F12 for 1 h at 37° C. The cAMP levels were measured by using the cAMP femto kit (CisBio) by following the manufacturer's instructions. Following treatment with a test compound, the cells were lysed and cAMP levels were estimated by adding D2-labelled cAMP and europium-cryptate conjugated anti-cAMP antibody. Close proximity of D2 and cryptate results in FRET and the subsequent fluorescence that is measured at 665 and 620 nm. The FRET response is calculated as the ratio of fluorescence at 665 to fluorescence at 620 nm. The unlabelled cAMP produced as a result of GPR119 activation/agonism competes with the D2-cAMP leading to a decrease in the FRET signal. Thus the FRET signal is inversely proportional to the amount of cAMP produced by the treated cells. In a separate set of wells, known concentrations of cAMP were added in order to get a standard linear curve for extrapolation of the cAMP values in the unknown/test samples. Fluorescence was measured on BMG Labtech PHERAstar machine.
The concentration of compound required to stimulate a half-maximal response (EC50) was determined using the GraphPad Prism software.
The compounds prepared were tested using the above assay procedure and the results obtained are given below.
In general terms: Changes in cAMP serve as a functional read-out for many G protein-coupled receptors.
Broadly, the EC50 is the concentration that produces a half-maximal response. In the case of `CCc1cnc(N2CCC(Oc3ccc(-n4ccc5cc(C(=O)NC6CC6)ccc54)nc3)CC2)nc1` [Example-54, N-Cyclopropyl-1-(5-((1-(5-ethylpyrimidin-2-yl)piperidin-4-yl)oxy)pyridin-2-yl)-1H-indole-5-carboxamide], the EC50 is < 50 nM.

In the case of `CC(C)NC(=O)c1ccc2c(ccn2-c2ccc(OC3CCN(C(=O)OC(C)C)CC3)cn2)c1` [Example-72, Isopropyl 4-((6-(5-(isopropylcarbamoyl)-1H-indol-1-yl)pyridin-3-yl)oxy) piperidine-1-carboxylate], the EC50 was 250 to 1000 nM and 50 to 250 nM. Under `CCc1cnc(N2CCC(Oc3ccc(-n4ccc5cc(C(=O)NCCO)ccc54)nc3)CC2)nc1` [Example-77, 1-(5-((1-(5-Ethylpyrimidin-2-yl)piperidin-4-yl)oxy)pyridin-2-yl)-N-(2-hydroxyethyl)-1H-indole-5-carboxamide] stands < 50 nM; under `CCc1cnc(N2CCC(Oc3ccc(-n4ccc5cc(C#N)ccc54)nc3)CC2)nc1` [Example-58, 1-(5-((1-(5-Ethylpyrimidin-2-yl)piperidin-4-yl)oxy)pyridin-2-yl)-1H-indole-5-carbonitrile], 250 to 1000 nM; under `CCS(=O)(=O)c1ccc2c(ccn2-c2ccc(OC3CCN(CC(C)(C)O)CC3)cn2)c1` [Example-13, 1-(4-((6-(5-(Ethylsulfonyl)-1H-indol-1-yl)pyridin-3-yl)oxy)piperidin-1-yl)-2-methylpropan-2-ol], 50 to 250 nM. Under `CC(C)OC(=O)N1CCC(Oc2ccc(-n3ccc4cc(C(=O)N(C)C)ccc43)nc2)CC1` [Example-74, Isopropyl 4-((6-(5-(dimethylcarbamoyl)-1H-indol-1-yl)pyridin-3-yl)oxy) piperidine-1-carboxylate] stands < 50 nM; under `CCc1cnc(N2CCC(Oc3ccc(-n4ccc5cc(S(C)(=O)=O)ccc54)nc3)CC2)nc1` [Example-2, 1-(5-((1-(5-Ethylpyrimidin-2-yl)piperidin-4-yl)oxy)pyridin-2-yl)-5-(methylsulfonyl)-1H-indole], < 50 nM. Regarding `CCc1cnc(N2CCC(OCc3ccc(-n4ccc5cc(S(C)(=O)=O)ccc54)nc3)CC2)nc1` [Example-42, 1-(5-(((1-(5-Ethylpyrimidin-2-yl)piperidin-4-yl)oxy)methyl)pyridin-2-yl)-5-(methylsulfonyl)-1H-indole], the EC50 is 50 to 250 nM. As to `CCc1cnc(N2CCC(Oc3ccc(-n4ccc5cc(NC(=O)OC(C)C)ccc54)nc3)CC2)nc1` [Example-132, Isopropyl(1-(5-((1-(5-ethylpyrimidin-2-yl)piperidin-4-yl)oxy)pyridin-2-yl)-1H-indol-5-yl)carbamate], the EC50 is < 50 nM.

With `CCc1cnc(N2CC3COCC(C2)C3Oc2ccc(-n3ccc4cc(S(C)(=O)=O)ccc43)nc2)nc1` (stereo not drawn) [Example-51, anti 7-(5-Ethylpyrimidin-2-yl)-9-((6-(5-(methylsulfonyl)-1H-indol-1-yl)pyridin-3-yl)oxy)-3-oxa-7-azabicyclo[3.3.1]nonane], the concentration for a half-maximal effect (EC50) is < 50 nM. Under `CCc1cnc(N2CCC(Nc3ccc(-n4ccc5cc(S(C)(=O)=O)ccc54)nc3)CC2)nc1` [Example-119, N-(1-(5-Ethylpyrimidin-2-yl)piperidin-4-yl)-6-(5-(methylsulfonyl)-1H-indol-1-yl)pyridin-3-amine] stands 50 to 250 nM; under `Cc1noc(N2CCC(Oc3ccc(-n4ccc5cc(S(=O)(=O)C(C)C)ccc54)nc3)CC2)n1` [Example-18, 5-(4-((6-(5-(Isopropylsulfonyl)-1H-indol-1-yl)pyridin-3-yl)oxy)piperidin-1-yl)-3-methyl-1,2,4-oxadiazole], 50 to 250 nM. Under `CCc1cnc(N2CCC(Oc3ccc(-n4ccc5cc(-c6nc(C)no6)ccc54)nc3)CC2)nc1` [Example-103, 5-(1-(5-((1-(5-Ethylpyrimidin-2-yl)piperidin-4-yl)oxy)pyridin-2-yl)-1H-indol-5-yl)-3-methyl-1,2,4-oxadiazole] stands 50 to 250 nM; under `CS(=O)(=O)c1ccc2c(ccn2-c2ccc(OC3CCN(Cc4ccc(C(F)(F)F)cc4)CC3)cn2)c1` [Example-153, 5-(Methylsulfonyl)-1-(5-((1-(4-(trifluoromethyl)benzyl)piperidin-4-yl)oxy)pyridin-2-yl)-1H-indole], 50 to 250 nM. With `CCc1cnc(N2CCC(Oc3ccc(-n4ccc5cc(NC(=O)C(C)(C)C)ccc54)nc3)CC2)nc1` [Example-118, N-(1-(5-((1-(5-Ethylpyrimidin-2-yl)piperidin-4-yl)oxy)pyridin-2-yl)-1H-indol-5-yl)pivalamide] the figure was < 50 nM; with `CCc1cnc(N2CCC(Oc3ccc(-n4ccc5cc(S(C)(=O)=O)cc(F)c54)nc3)CC2)nc1` [Example-171, 1-(5-((1-(5-Ethylpyrimidin-2-yl)piperidin-4-yl)oxy)pyridin-2-yl)-7-fluoro-5-(methylsulfonyl)-1H-indole], < 50 nM; with `CC(C)(C)OC(=O)N1CCC(Oc2ccc(-n3ccc4cc(S(C)(=O)=O)cc(F)c43)nc2)CC1` [Example-91, tert-Butyl-4-((6-(7-fluoro-5-(methylsulfonyl)-1H-indol-1-yl)pyridin-3-yl)oxy)piperidine-1-carboxylate], < 50 nM. Regarding `CCc1noc(N2CCC(Oc3ccc(-n4ccc5cc(C(=O)N(C)C)ccc54)nc3)CC2)n1` [Example-147, 1-(5-((1-(3-Ethyl-1,2,4-oxadiazol-5-yl)piperidin-4-yl)oxy)pyridin-2-yl)-N,N-dimethyl-1H-indole-5-carboxamide], the EC50 was in the range of 50 to 250 nM. As to `CC(C)OC(=O)N1CCC(OCc2ccc(-n3ccc4cc(S(C)(=O)=O)ccc43)nc2)CC1` [Example-108, Isopropyl 4-((6-(5-(methylsulfonyl)-1H-indol-1-yl)pyridin-3-yl)methoxy)piperidine-1-carboxylate], the EC50 was 50 to 250 nM.

`CN(C)C(=O)c1ccc2c(ccn2-c2ccc(OC3CCN(C(=O)OC(C)(C)C)CC3)cn2)c1` [Example-39, tert-Butyl-4-((6-(5-(dimethylcarbamoyl)-1H-indol-1-yl)pyridin-3-yl)oxy) piperidine-1-carboxylate]: the concentration for a half-maximal effect (EC50) is < 50 nM.

Turning to `Cc1noc(N2CCC(Oc3ccc(-n4ccc5cc(S(C)(=O)=O)ccc54)nc3)CC2)n1` [Example-92, 3-Methyl-5-(4-((6-(5-(methylsulfonyl)-1H-indol-1-yl)pyridin-3-yl)oxy)piperidin-1-yl)-1,2,4-oxadiazole], the half-maximal effective concentration (EC50) is 50 to 250 nM. Under `CCc1cnc(N2CCC(Oc3ccc(-n4ccc5cc(OC)cnc54)nc3)CC2)nc1` [Example-157, 1-(5-((1-(5-Ethylpyrimidin-2-yl)piperidin-4-yl)oxy)pyridin-2-yl)-5-methoxy-1H-pyrrolo[2,3-b]pyridine] stands 50 to 250 nM.

Consider `CCOC(=O)N1CCC(Oc2ccc(-n3ccc4cc(S(C)(=O)=O)ccc43)nc2)CC1` [Example-185, Ethyl-4-((6-(5-(methylsulfonyl)-1H-indol-1-yl)pyridin-3-yl)oxy)-piperidine-1-carboxylate], for which the 50% effective concentration (EC50) lay within 50 to 250 nM.

As to `CCOC(=O)Nc1ccc2c(ccn2-c2ccc(OC3CCN(c4nc(C(C)C)no4)CC3)cn2)c1` [Example-141, Ethyl(1-(5-((1-(3-isopropyl-1,2,4-oxadiazol-5-yl)piperidin-4-yl)oxy)pyridin-2-yl)-1H-indol-5-yl)carbamate], the 50% effective concentration (EC50) is < 50 nM.
